Test results reported in PubChem BioAssay AID248 (DTP/NCI, 2004).
Toxic doses and inconclusive results are not listed. Rule as the data show it: active = T/C of 150% or more; inactive = T/C below 125%.

Tested on: L1210 leukemia ip in BDF1 mice, survival T/C
Assay: NCI In Vivo Anticancer Drug Screen. Data for tumor model L1210 Leukemia (intraperitoneal) in B6D2F1 (BDF1) mice
Conditions: endpoint: mean survival time, higher = longer survival
Outline: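 Transplanted-tumor mice were given test agent; controls received vehicle only. Survival readings from the two groups were divided (treated over control).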

[1] = dose: 100.0 mg/kg/injection, schedule: Q01DX001 (ip), vehicle: saline
[2] = dose: 200.0 mg/kg/injection, schedule: Q01DX001 (ip), vehicle: saline
[3] = dose: 400.0 mg/kg/injection, schedule: Q01DX001 (ip), vehicle: saline
[4] = dose: 100.0 mg/kg/injection, schedule: Q01DX001 (ip), vehicle: Klucel (hydroxypropylcellulose) (HPC)
[5] = dose: 100.0 mg/kg/injection, schedule: Q04DX003 (ip), vehicle: Klucel (hydroxypropylcellulose) (HPC)
[6] = dose: 200.0 mg/kg/injection, schedule: Q01DX001 (ip), vehicle: Klucel (hydroxypropylcellulose) (HPC)
[7] = dose: 200.0 mg/kg/injection, schedule: Q04DX003 (ip), vehicle: Klucel (hydroxypropylcellulose) (HPC)
[8] = dose: 400.0 mg/kg/injection, schedule: Q04DX003 (ip), vehicle: Klucel (hydroxypropylcellulose) (HPC)
[9] = dose: 50.0 mg/kg/injection, schedule: Q01DX001 (ip), vehicle: saline
[10] = dose: 100.0 mg/kg/injection, schedule: Q01DX009 (ip), vehicle: Klucel (hydroxypropylcellulose) (HPC)
[11] = dose: 200.0 mg/kg/injection, schedule: Q01DX009 (ip), vehicle: Klucel (hydroxypropylcellulose) (HPC)
[12] = dose: 400.0 mg/kg/injection, schedule: Q01DX009 (ip), vehicle: Klucel (hydroxypropylcellulose) (HPC)

Measured: T/C

CCOC(=O)/C(C#N)=C\c1cccc2ccccc12
inactive: [1] 98 % of control | dose: 100.0 mg/kg/injection, schedule: Q04DX003 (ip), vehicle: other 92 % of control | [2] 103 % of control | dose: 200.0 mg/kg/injection, schedule: Q04DX003 (ip), vehicle: other 92 % of control | [3] 100 % of control | dose: 400.0 mg/kg/injection, schedule: Q04DX003 (ip), vehicle: other 93 % of control

OCCOCC12c3ccccc3C3C(c4ccccc41)C32 (configuration not stated)
inactive: dose: 50.0 mg/kg/injection, schedule: Q04DX002 (ip), vehicle: saline with Tween-80 90 % of control | dose: 200.0 mg/kg/injection, schedule: Q04DX002 (ip), vehicle: saline with Tween-80 96 % of control

C#CCOC(=O)NCC
inactive: dose: 100.0 mg/kg/injection, schedule: Q04DX003 (ip), vehicle: saline 101 % of control | dose: 200.0 mg/kg/injection, schedule: Q04DX003 (ip), vehicle: saline 102 % of control | dose: 400.0 mg/kg/injection, schedule: Q04DX003 (ip), vehicle: saline 96 % of control

CCC1(CC)C2=CCC3C(CCC4(C)C(C(C)CCCC(C)C)CCC34)C2(C)CCC1OC(C)=O (configuration not stated)
inactive: dose: 50.0 mg/kg/injection, schedule: Q01DX009 (sc), vehicle: steriod suspending solution 90 % of control | dose: 100.0 mg/kg/injection, schedule: Q01DX009 (sc), vehicle: steriod suspending solution 87 % of control | dose: 100.0 mg/kg/injection, schedule: Q04DX003 (sc), vehicle: steriod suspending solution 107 % of control | dose: 200.0 mg/kg/injection, schedule: Q01DX009 (sc), vehicle: steriod suspending solution 100 % of control | dose: 200.0 mg/kg/injection, schedule: Q04DX003 (sc), vehicle: steriod suspending solution 86 % of control | dose: 400.0 mg/kg/injection, schedule: Q04DX003 (sc), vehicle: steriod suspending solution 96 % of control

O=C1OCCN1S(=O)(=O)c1ccc([N+](=O)[O-])cc1
inactive: dose: 3.12 mg/kg/injection, schedule: Q01DX009 (ip), vehicle: Klucel (hydroxypropylcellulose) (HPC) 94 % of control | dose: 6.25 mg/kg/injection, schedule: Q01DX009 (ip), vehicle: Klucel (hydroxypropylcellulose) (HPC) 93 % of control | dose: 12.5 mg/kg/injection, schedule: Q01DX009 (ip), vehicle: Klucel (hydroxypropylcellulose) (HPC) 94 % of control | [4] 86 % of control | [5] 97 % of control | [6] 91 % of control | [7] 92 % of control | [8] 88 % of control

Cc1cc(CCNC=O)c(C)c2c1sc1ccccc12
inactive: [9] 97 % of control | [1] 97 % of control | [2] 92 % of control | [3] 94 % of control

CCCCC(=O)OC1CC2CCC1(C)C2(C)C (configuration not stated)
inactive: [10] 102 % of control | [5] 96 % of control | [11] 102 % of control | [7] 96 % of control | [12] 104 % of control | [8] 100 % of control

CCNC(=O)Nc1ccccc1
inactive: dose: 100.0 mg/kg/injection, schedule: Q04DX002 (ip), vehicle: Klucel (hydroxypropylcellulose) (HPC) 93 % of control | dose: 200.0 mg/kg/injection, schedule: Q04DX002 (ip), vehicle: Klucel (hydroxypropylcellulose) (HPC) 96 % of control

CS(=O)(=O)OC1C(OCc2ccccc2)OC(COCc2ccccc2)C(OC2OC(COCc3ccccc3)C(OCc3ccccc3)C(OCc3ccccc3)C2OCc2ccccc2)C1OCc1ccccc1 (configuration not stated)
inactive: dose: 50.0 mg/kg/injection, schedule: Q04DX003 (ip), vehicle: Klucel (hydroxypropylcellulose) (HPC) 93 % of control | [5] 93 % of control | [7] 97 % of control | [8] 93 % of control

CC1(C)CC(=O)C=C(N2CCC(CCCC3CCN(C4=CC(=O)CC(C)(C)C4)CC3)CC2)C1
inactive: dose: 50.0 mg/kg/injection, schedule: Q04DX003 (ip), vehicle: saline with Tween-80 94 % of control | dose: 100.0 mg/kg/injection, schedule: Q04DX003 (ip), vehicle: saline with Tween-80 102 % of control | dose: 200.0 mg/kg/injection, schedule: Q04DX003 (ip), vehicle: saline with Tween-80 88 % of control

O=C1c2cc([N+](=O)[O-])ccc2-c2cc(Cl)c(Cl)cc21
inactive: [7] 91 % of control | [8] 94 % of control

Nc1ccc(SC(Sc2ccc(N)cc2)c2ccccc2)cc1
inactive: dose: 75.0 mg/kg/injection, schedule: Q01DX001 (ip), vehicle: other 105 % of control | dose: 75.0 mg/kg/injection, schedule: Q04DX003 (ip), vehicle: other 101 % of control | dose: 150.0 mg/kg/injection, schedule: Q01DX001 (ip), vehicle: other 107 % of control | dose: 150.0 mg/kg/injection, schedule: Q04DX003 (ip), vehicle: other 89 % of control | dose: 300.0 mg/kg/injection, schedule: Q01DX001 (ip), vehicle: other 100 % of control | dose: 300.0 mg/kg/injection, schedule: Q04DX003 (ip), vehicle: other 92 % of control

CCOC(=S)c1ccc(S(=O)(=O)Nc2ccccc2)cc1
inactive: dose: 100.0 mg/kg/injection, schedule: Q01DX001 (ip), vehicle: saline with Tween-80 100 % of control | dose: 200.0 mg/kg/injection, schedule: Q01DX001 (ip), vehicle: saline with Tween-80 97 % of control | dose: 400.0 mg/kg/injection, schedule: Q01DX001 (ip), vehicle: saline with Tween-80 95 % of control

O=C1C(=O)c2ccccc2C(O)=C1Nc1ccc(Cl)cc1
inactive: [1] 94 % of control | [2] 93 % of control | [3] 93 % of control

Cc1c(C)c(Br)c(C)c(-c2c(C)c(C)c(C)c(Br)c2C)c1C
inactive: dose: 50.0 mg/kg/injection, schedule: Q01DX009 (ip), vehicle: Klucel (hydroxypropylcellulose) (HPC) 99 % of control | [10] 97 % of control | [11] 94 % of control | [12] 90 % of control

CCN(CC)S(=O)(=O)c1ccc(C(=O)O)cc1
inactive: [10] 101 % of control | [5] 101 % of control | [11] 104 % of control | [7] 105 % of control | [12] 103 % of control | [8] 92 % of control

Clc1ccc(Cl)c2c(Br)cncc12
inactive: dose: 100.0 mg/kg/injection, schedule: Q01DX001 (ip), vehicle: other 98 % of control | dose: 200.0 mg/kg/injection, schedule: Q01DX001 (ip), vehicle: other 98 % of control | dose: 400.0 mg/kg/injection, schedule: Q01DX001 (ip), vehicle: other 93 % of control

S=C1N/N=C/NN/C=N/N1
inactive: dose: 10.0 mg/kg/injection, schedule: Q01DX001 (ip), vehicle: saline 105 % of control | dose: 20.0 mg/kg/injection, schedule: Q01DX001 (ip), vehicle: saline 94 % of control

COc1cc(N)c2ncccc2c1[N+](=O)[O-]
inactive: [9] 112 % of control | [1] 106 % of control | [2] 106 % of control | [3] 104 % of control

CSc1nc2ncncc2c(=O)[nH]1
inactive: [4] 96 % of control | [10] 98 % of control | [6] 100 % of control | [11] 102 % of control | dose: 400.0 mg/kg/injection, schedule: Q01DX001 (ip), vehicle: Klucel (hydroxypropylcellulose) (HPC) 101 % of control | [12] 95 % of control

O=NN(C(=O)NC1CCCCC1Cl)C1CCCCC1Cl (configuration not stated)
inactive: dose: 8.0 mg/kg/injection, schedule: Q01DX001 (ip), vehicle: carboxymethylcellulose (CMC) 102 % of control | dose: 12.0 mg/kg/injection, schedule: Q01DX001 (ip), vehicle: carboxymethylcellulose (CMC) 106 % of control | dose: 18.0 mg/kg/injection, schedule: Q01DX001 (ip), vehicle: carboxymethylcellulose (CMC) 106 % of control | dose: 26.0 mg/kg/injection, schedule: Q01DX001 (ip), vehicle: carboxymethylcellulose (CMC) 106 % of control | dose: 40.0 mg/kg/injection, schedule: Q01DX001 (ip), vehicle: carboxymethylcellulose (CMC) 107 % of control | dose: 60.0 mg/kg/injection, schedule: Q01DX001 (ip), vehicle: carboxymethylcellulose (CMC) 98 % of control | dose: 93.0 mg/kg/injection, schedule: Q01DX001 (ip), vehicle: carboxymethylcellulose (CMC) 104 % of control | dose: 187.0 mg/kg/injection, schedule: Q01DX001 (ip), vehicle: carboxymethylcellulose (CMC) 102 % of control | dose: 375.0 mg/kg/injection, schedule: Q01DX001 (ip), vehicle: carboxymethylcellulose (CMC) 96 % of control
